According to PMC11730311 (Scientific Reports, 2025):
Starred links: 1 amine or outer side, 2 acyl side, 3 side chain; linkers in the order of their positions; H or OH if unused. Residues, ends and D or L forms follow the SMILES beside them. Groups on a side chain read outwards from the residue. No end group written: not given here. *: point of attachment. C20 diacid = O=C(O)CCCCCCCCCCCCCCCCCCC(=O)*; γGlu = O=C(O)[C@H](CCC(=O)[*:2])N[*:1]

What was measured:
[1] = Pharmacokinetic pilot study, plasma exposure after IV dosing; format: in vivo, mouse; details: for half-life: male, NMRI, mouse, plasma, iv, 700 nmol/kg
[2] = biological target: human calcitonin gene-related peptide receptor (hCGRP-R) (Homo sapiens, UniProt O60894+Q16602); assay: cell-based
Chain of human calcitonin gene-related peptide receptor (hCGRP-R) (Q16602 23-461): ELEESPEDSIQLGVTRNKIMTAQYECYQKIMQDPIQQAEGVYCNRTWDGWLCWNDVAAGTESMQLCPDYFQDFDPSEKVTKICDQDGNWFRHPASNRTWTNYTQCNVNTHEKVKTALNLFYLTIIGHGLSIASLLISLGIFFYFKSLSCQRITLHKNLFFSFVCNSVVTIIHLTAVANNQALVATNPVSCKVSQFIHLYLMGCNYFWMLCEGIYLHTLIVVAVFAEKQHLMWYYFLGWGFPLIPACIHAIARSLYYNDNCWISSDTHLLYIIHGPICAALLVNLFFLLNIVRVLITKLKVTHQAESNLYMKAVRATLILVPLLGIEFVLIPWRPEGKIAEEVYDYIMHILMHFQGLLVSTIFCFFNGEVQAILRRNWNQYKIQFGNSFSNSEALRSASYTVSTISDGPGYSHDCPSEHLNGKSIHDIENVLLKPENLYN
Chain of human calcitonin gene-related peptide receptor (hCGRP-R) (O60894 27-148): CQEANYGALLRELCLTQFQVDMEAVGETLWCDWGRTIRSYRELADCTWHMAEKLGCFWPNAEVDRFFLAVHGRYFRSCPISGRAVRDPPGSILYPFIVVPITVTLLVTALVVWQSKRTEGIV

| Kb [2] [nM] | Molecule | half-life [1] [min] | difference in half-life versus hαCGRP8-37N25K-C20DA-γGlu ([1]; male NMRI mice, IV) |
| --- | --- | --- | --- |
| – | CC(C)C[C@H](NC(=O)[C@H](CCCNC(=N)N)NC(=O)[C@H](Cc1c[nH]cn1)NC(=O)[C@@H](NC(=O)[C@@H](N)C(C)C)[C@@H](C)O)C(=O)N[C@@H](C)C(=O)N[C@@H](CCCCNC(=O)CC[C@H](NC(=O)CCCCCCCCCCCCCCCCCCC(=O)O)C(=O)O)C(=O)N[C@@H](CC(C)C)C(=O)N[C@@H](CC(C)C)C(=O)N[C@@H](CO)C(=O)N[C@@H](CCCNC(=N)N)C(=O)N[C@@H](CO)C(=O)NCC(=O)NCC(=O)N[C@H](C(=O)N[C@H](C(=O)N[C@@H](CCCCN)C(=O)N[C@@H](CC(N)=O)C(=O)N[C@@H](CC(N)=O)C(=O)N[C@@H](Cc1ccccc1)C(=O)N[C@H](C(=O)N1CCC[C@H]1C(=O)N[C@H](C(=O)N[C@@H](CC(N)=O)C(=O)N[C@H](C(=O)NCC(=O)N[C@@H](CO)C(=O)N[C@@H](CCCCN)C(=O)N[C@@H](C)C(=O)N[C@@H](Cc1ccccc1)C(N)=O)C(C)C)[C@@H](C)O)C(C)C)C(C)C)C(C)C [G14K-C20DA-γGlu] (H-VTHRLAK([γGlu-C20 diacid])LLSRSGGVVKNNFVPTNVGSKAF-NH2) | 606 | – |
| – | CC(C)C[C@H](NC(=O)CNC(=O)[C@H](C)NC(=O)[C@H](CC(C)C)NC(=O)[C@H](CCCNC(=N)N)NC(=O)[C@H](Cc1c[nH]cn1)NC(=O)[C@@H](NC(=O)[C@@H](N)C(C)C)[C@@H](C)O)C(=O)N[C@@H](CC(C)C)C(=O)N[C@@H](CO)C(=O)N[C@@H](CCCNC(=N)N)C(=O)N[C@@H](CO)C(=O)N[C@@H](CCCCNC(=O)CC[C@H](NC(=O)CCCCCCCCCCCCCCCCCCC(=O)O)C(=O)O)C(=O)NCC(=O)N[C@H](C(=O)N[C@H](C(=O)N[C@@H](CCCCN)C(=O)N[C@@H](CC(N)=O)C(=O)N[C@@H](CC(N)=O)C(=O)N[C@@H](Cc1ccccc1)C(=O)N[C@H](C(=O)N1CCC[C@H]1C(=O)N[C@H](C(=O)N[C@@H](CC(N)=O)C(=O)N[C@H](C(=O)NCC(=O)N[C@@H](CO)C(=O)N[C@@H](CCCCN)C(=O)N[C@@H](C)C(=O)N[C@@H](Cc1ccccc1)C(N)=O)C(C)C)[C@@H](C)O)C(C)C)C(C)C)C(C)C [G20K-C20DA-γGlu] (H-VTHRLAGLLSRSK([γGlu-C20 diacid])GVVKNNFVPTNVGSKAF-NH2) | 450 | – |
| – | CC(C)C[C@H](NC(=O)CNC(=O)[C@H](C)NC(=O)[C@H](CC(C)C)NC(=O)[C@H](CCCNC(=N)N)NC(=O)[C@H](Cc1c[nH]cn1)NC(=O)[C@@H](NC(=O)[C@@H](N)C(C)C)[C@@H](C)O)C(=O)N[C@@H](CC(C)C)C(=O)N[C@@H](CCCCNC(=O)CC[C@H](NC(=O)CCCCCCCCCCCCCCCCCCC(=O)O)C(=O)O)C(=O)N[C@@H](CCCNC(=N)N)C(=O)N[C@@H](CO)C(=O)NCC(=O)NCC(=O)N[C@H](C(=O)N[C@H](C(=O)N[C@@H](CCCCN)C(=O)N[C@@H](CC(N)=O)C(=O)N[C@@H](CC(N)=O)C(=O)N[C@@H](Cc1ccccc1)C(=O)N[C@H](C(=O)N1CCC[C@H]1C(=O)N[C@H](C(=O)N[C@@H](CC(N)=O)C(=O)N[C@H](C(=O)NCC(=O)N[C@@H](CO)C(=O)N[C@@H](CCCCN)C(=O)N[C@@H](C)C(=O)N[C@@H](Cc1ccccc1)C(N)=O)C(C)C)[C@@H](C)O)C(C)C)C(C)C)C(C)C [S17K-C20DA-γGlu] (H-VTHRLAGLLK([γGlu-C20 diacid])RSGGVVKNNFVPTNVGSKAF-NH2) | 738 | – |
| – | CC(C)C[C@H](NC(=O)CNC(=O)[C@H](C)NC(=O)[C@H](CC(C)C)NC(=O)[C@H](CCCNC(=N)N)NC(=O)[C@H](Cc1c[nH]cn1)NC(=O)[C@@H](NC(=O)[C@@H](N)C(C)C)[C@@H](C)O)C(=O)N[C@@H](CC(C)C)C(=O)N[C@@H](CO)C(=O)N[C@@H](CCCNC(=N)N)C(=O)N[C@@H](CCCCNC(=O)CC[C@H](NC(=O)CCCCCCCCCCCCCCCCCCC(=O)O)C(=O)O)C(=O)NCC(=O)NCC(=O)N[C@H](C(=O)N[C@H](C(=O)N[C@@H](CCCCN)C(=O)N[C@@H](CC(N)=O)C(=O)N[C@@H](CC(N)=O)C(=O)N[C@@H](Cc1ccccc1)C(=O)N[C@H](C(=O)N1CCC[C@H]1C(=O)N[C@H](C(=O)N[C@@H](CC(N)=O)C(=O)N[C@H](C(=O)NCC(=O)N[C@@H](CO)C(=O)N[C@@H](CCCCN)C(=O)N[C@@H](C)C(=O)N[C@@H](Cc1ccccc1)C(N)=O)C(C)C)[C@@H](C)O)C(C)C)C(C)C)C(C)C [S19K-C20DA-γGlu] (H-VTHRLAGLLSRK([γGlu-C20 diacid])GGVVKNNFVPTNVGSKAF-NH2) | 822 | ~ 6 h |
| 6.76 | CC(C)C[C@H](NC(=O)CNC(=O)[C@H](C)NC(=O)[C@H](CC(C)C)NC(=O)[C@H](CCCNC(=N)N)NC(=O)[C@H](Cc1c[nH]cn1)NC(=O)[C@@H](NC(=O)[C@@H](N)C(C)C)[C@@H](C)O)C(=O)N[C@@H](CC(C)C)C(=O)N[C@@H](CO)C(=O)N[C@@H](CCCNC(=N)N)C(=O)N[C@@H](CO)C(=O)NCC(=O)NCC(=O)N[C@H](C(=O)N[C@H](C(=O)N[C@@H](CCCCN)C(=O)N[C@@H](CCCCNC(=O)CC[C@H](NC(=O)CCCCCCCCCCCCCCCCCCC(=O)O)C(=O)O)C(=O)N[C@@H](CC(N)=O)C(=O)N[C@@H](Cc1ccccc1)C(=O)N[C@H](C(=O)N1CCC[C@H]1C(=O)N[C@H](C(=O)N[C@@H](CC(N)=O)C(=O)N[C@H](C(=O)NCC(=O)N[C@@H](CO)C(=O)N[C@@H](CCCCN)C(=O)N[C@@H](CO)C(=O)N[C@@H](Cc1ccccc1)C(N)=O)C(C)C)[C@@H](C)O)C(C)C)C(C)C)C(C)C [hαCGRP8-37A36S, N25K-C20DA-γGlu] (H-VTHRLAGLLSRSGGVVKK([γGlu-C20 diacid])NFVPTNVGSKSF-NH2) | – | – |
| 1.66 | VTHRLAGLLSRSGGVVKNNFVPTNVGSKSF-NH2 [hαCGRP8-37A36S] | – | – |

| Molecule | Kb [2] [nM] | half-life [1] [min] | difference in half-life versus hαCGRP8-37N25K-C20DA-γGlu ([1]; male NMRI mice, IV) |
| --- | --- | --- | --- |
| CC(C)C[C@H](NC(=O)CNC(=O)[C@H](C)NC(=O)[C@H](CC(C)C)NC(=O)[C@H](CCCNC(=N)N)NC(=O)[C@H](Cc1c[nH]cn1)NC(=O)[C@@H](NC(=O)[C@@H](N)C(C)C)[C@@H](C)O)C(=O)N[C@@H](CC(C)C)C(=O)N[C@@H](CO)C(=O)N[C@@H](CCCNC(=N)N)C(=O)N[C@@H](CO)C(=O)NCC(=O)NCC(=O)N[C@H](C(=O)N[C@H](C(=O)N[C@@H](CCCCN)C(=O)N[C@@H](CCCCNC(=O)CC[C@H](NC(=O)CCCCCCCCCCCCCCCCCCC(=O)O)C(=O)O)C(=O)N[C@@H](CC(N)=O)C(=O)N[C@@H](Cc1ccccc1)C(=O)N[C@H](C(=O)N1CCC[C@H]1C(=O)N[C@H](C(=O)N[C@@H](CC(N)=O)C(=O)N[C@H](C(=O)NCC(=O)N[C@@H](CO)C(=O)N[C@@H](CCCCN)C(=O)N[C@@H](C)C(=O)N[C@@H](Cc1ccccc1)C(N)=O)C(C)C)[C@@H](C)O)C(C)C)C(C)C)C(C)C [hαCGRP8-37N25K-C20DA-γGlu] | 4.68 | 438 | – |
